Reference: patent US20260284207A1, “COMPOUND FOR USE AS A PEPTIDE BINDER SPECIFICALLY BINDING TO THE UBIQUITIN LIGASE ADAPTER FBXO31” (ETH ZÜRICH, priority 2022, published 2026)
fluorescein = N-terminal fluorescein label, coupled as FITC

What was measured:
K562 cells = experiment: Fluorescent reporter protein stability assay in nucleofected K562 cells; type: cell-based, human; details: sfGFP carrying a primary C-terminal amide
Description: HEK293T cells were cultured in DMEM containing Glutamax (Thermo Fisher Scientific) and K562 cells were cultured in RPMI 1640 containing Glutamax (Thermo Fisher Scientific) under standard conditions. Growth media were further supplemented with 10% (v/v) Fetal Bovine Serum (Thermo Fisher Scientific) and 100 U/ml Penicillin-Streptomycin (Thermo Fisher Scientific). Stably transduced cells were selected using 2 μg/ml Puromycin (Thermo Fisher Scientific), 500 μg/ml Geneticin (Thermo Fisher Scientific) or 10 μg/ml Blasticidin (Thermo Fisher Scientific) starting two days after transduction. Induction of doxycycline-dependent vectors was performed using 500 ng/ml doxycycline (Merck) every 48 hours. […]
For measuring stability of recombinant or semi-synthetic proteins, 1.5-2.0×10^5 cells were nucleofected with 200 pmol of protein in 20 μl cuvettes using a 4D nucleofector device (Lonza) to according the manufacturer's recommendations. Following protein delivery, cells were left to recover at 37° C. for 30-45 minutes before measuring initial mean fluorescence intensity values (to) on a Attune N×T Flow Cytometer (Thermo Fisher Scientific). […] Baseline-fluorescence values of mock nucleofected cells receiving no protein were measured and subtracted for each time point and baseline-corrected fluorescence values were normalized to t0. […]

[1] = molecular target: T1, recombinant FBXO31/SKP1 complexes (Homo sapiens, UniProt Q5XUX0); experiment: Fluorescence polarization (FP) binding of fluorescein-labeled peptides to recombinant FBXO31/SKP1; details: wild type FBXO31/SKP1
T1 construct: histidine tag (Ulp1-cleavable) (cleaved yes); made in house; host or cells: bacteria (pET28b expression vector)
T1 sequence (Q5XUX0 whole entry): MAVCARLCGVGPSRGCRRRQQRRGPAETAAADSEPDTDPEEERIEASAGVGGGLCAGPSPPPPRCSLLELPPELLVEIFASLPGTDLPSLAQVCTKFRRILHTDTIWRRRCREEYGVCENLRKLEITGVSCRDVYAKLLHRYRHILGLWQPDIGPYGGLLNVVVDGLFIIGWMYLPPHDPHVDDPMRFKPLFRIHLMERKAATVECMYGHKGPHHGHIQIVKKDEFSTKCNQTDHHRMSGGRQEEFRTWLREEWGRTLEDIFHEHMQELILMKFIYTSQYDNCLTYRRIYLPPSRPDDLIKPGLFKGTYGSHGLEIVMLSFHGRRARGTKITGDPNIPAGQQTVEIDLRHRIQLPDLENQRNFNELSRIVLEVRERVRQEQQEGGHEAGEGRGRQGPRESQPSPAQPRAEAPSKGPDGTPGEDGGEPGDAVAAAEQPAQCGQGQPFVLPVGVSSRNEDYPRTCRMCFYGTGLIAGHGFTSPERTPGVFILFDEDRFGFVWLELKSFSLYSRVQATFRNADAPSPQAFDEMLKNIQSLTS
T1 sequence (P63208 whole entry partner): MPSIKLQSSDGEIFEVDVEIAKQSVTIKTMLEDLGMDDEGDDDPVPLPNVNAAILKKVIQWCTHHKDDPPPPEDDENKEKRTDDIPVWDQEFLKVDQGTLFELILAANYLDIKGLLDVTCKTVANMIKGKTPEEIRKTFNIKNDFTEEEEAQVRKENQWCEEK
Description: It was then tested whether SCF/FBXO31 directly binds and ubiquitylates amidated clients, or whether it plays an indirect role in CTAP clearance. To this end, recombinant FBXO31 in complex with the binding partner SKP1 was purified and its affinity for various peptides was measured by fluorescence polarization (FP).
In this regard, it was first tested whether FBXO31 specifically binds C-terminal amides rather than side chain amides in asparagine or glutamine. […] Hydrophobic residues were most strongly bound, with X—F—CONH2 as the best substrate (KD≈6 nM), followed by other and then uncharged and charged hydrophilic side chains.
Codon-optimized CDNAs of SKP1 and FBXO31 were generated by gene synthesis (Integrated DNA Technologies) and cloned into the bacterial expression vector pET28b. Expression was performed at 18° C. overnight in presence of 0.5 mM IPTG. Following bacterial cell lysis by sonication in buffer NBA (200 mM NaCl, 50 mM HEPES, 25 mM imidazole, 5 mM DTT freshly added, pH 8.0), recombinant protein was enriched on a HisTrap FF column (Cytiva) by elution with 250 mM imidazole. […]
Increasing concentrations of recombinant FBXO31/SKP1 complexes were mixed with 20 nM fluorescein-labeled peptides in FPA-buffer (150 mM NaCl, 25 mM HEPES, pH 7.5) and incubated for 30 minutes at room temperature. Fluorescence polarization was measured on a Victor Nivo Plate Reader (Perkin Elmer). […]

FBXO31 = molecular target: T2, FBXO31 (Homo sapiens, UniProt Q5XUX0); experiment: Competitive fluorescence polarization anisotropy (displacement of fluorescent peptide probes); type: binding; details: probes FL-lib-SVV-NH2, FL-CycD1-NH2, FL-Pep2-NH2; 2 nM probe, 200 nM FBXO31
T2 construct: histidine tag (Ulp1-cleavable) (cleaved yes); made in house; host or cells: bacteria (pET28b expression vector)
T2 sequence (Q5XUX0 whole entry): as the sequence (Q5XUX0 whole entry) above
T2 sequence (P63208 whole entry partner): as the sequence (P63208 whole entry partner) above
Description: To test whether a lower molecular weight probe could be derived based on these rules, the C-terminally amidated tripeptide Ser-Val-Val-NH2 (302.37 g/mol) was tested.
Increasing concentrations of recombinant FBXO31/SKP1 complexes were mixed with 20 nM fluorescein-labeled peptides in FPA-buffer (150 mM NaCl, 25 mM HEPES, pH 7.5) and incubated for 30 minutes at room temperature. Fluorescence polarization was measured on a Victor Nivo Plate Reader (Perkin Elmer). Following subtraction of baseline signal, polarization levels were normalized to the highest signal of each pair of amidated and non-amidated peptides. Binding curves were fitted by least squares regression and half-maximal binding concentrations were extracted using Prism 9 (Graphpad) assuming one-site binding and no contribution from unspecific interaction. Competition binding assays were performed in the same way using a fixed ratio of 2 nM fluorescent probe and 200 nM FBXO31 and 0.67 nM to 100 μM competing ligand.

Row | Compound | effect of inhibitor on destabilization of C-terminally amidated sfGFP (K562 cells) | further results
1 | NS(=O)(=O)OC[C@H]1C[C@@H](Nc2ccnc3cc(-c4cccc(SC(F)(F)F)c4)nn23)[C@H](O)[C@@H]1O [TAK243] | fully blunted | 
2 | [Fluorescein]-KKYRYDVPDYSVV-NH2 (fluorescein-KKYRYDVPDYSVV-NH2) [FL-lib-SVV-NH2] |  | binding/affinity for FBXO31 (in words) [1]: high affinity
3 | CC[C@H](C)[C@H](NC(=O)[C@H]([C@@H](C)CC)N(C)C(C)=O)C(=O)N[C@H](C(=O)N[C@@H](CC(C)C)C(=O)[C@@]1(C)CO1)[C@@H](C)O [epoxomicin] | fully blunted | 
4 | Ser-Val-Val-NH2 |  | displacement of fluorescent peptide probes from FBXO31 (FBXO31): efficiently displace
